Columns and labels:
Type in all cases: cell-based, human
[1] = system: U373KO (RAD18 knockout of U373WT via CRISPR); test: Drug screening of U373KO tumor foci on OBSCs; conditions: U373 KO on OBSCs
Method: (§1) Tumor cells (0.17 μL, 25,000 cells) were seeded onto OBSCs 2h after slicing, with one tumor seeded in the center of each hemisphere for a total of two tumor foci per OBSC. BSM was changed 24h after slicing. Fluorescence images were taken 0 h, 24 h, and 96 h post-seeding for normalization of tumor size. Bioluminescence readouts were also taken at 0 h, 24 h, and 96 h post seeding for assessment of cell viability. Luciferin was added underneath the culture insert and allowed to incubate for 10 min before bioluminescence measurement on an AMI optical imaging system.
(§2) Tumor cells were seeded onto OBSCs 2h after slicing as described above. One day after tumor seeding, six concentrations of each drug were diluted in the media underneath each culture insert, or XRad was applied using an X-Rad 320 Precision X-ray machine (n = 4 tumor foci per concentration; n ≥ 24 tumor foci per drug per cell line). Three days after treatment, the bioluminescence of live tumor cells was measured using an AMI optical imager (Spectral Instruments) and dose-response curves were generated. Tumor survival was normalized to day one tumor fluorescence and compared to an untreated control group.
(§3) Several weighted parameters were factored into an overall drug sensitivity score.
(§4) For DSS parameters 1–6, therapeutic windows were calculated by comparing OBSC toxicity and tumor response at the doses where tumor kill passed through the DSS parameter (Table S1 and S3). For DSS parameter 7, the therapeutic window was calculated by comparing the slopes through the tumor EC50 and the OBSC tox EC50. For DSS parameter 8, the therapeutic window was calculated by comparing the areas under tumor kill and OBSC tox curves. Normalized therapeutic window ratios for DSS parameters 1–8 within each drug-tumor-OBSC interaction were calculated in the following manner: within each window, values ranged from +1 to −1, where values approaching +1 signify increasing tumor kill relative to normal tissue toxicity, and values approaching −1 indicate agents where tumors remained highly viable while toxicity to the normal OBSC tissue was elevated. DSS parameters 9–11 were determined based on the behavior of the tumor in response to the drug, as defined above.
(§5) All individually weighed parameters were added together to generate the DSS. Overall DSS from 0 to 100 signify increasing efficacy in tumor kill relative to OBSC toxicity, while scores from 0 to −100 describe scenarios in which tumors thrive more effectively than OBSCs for a given treatment. Dose-response values were calculated via linear interpolation of raw data, not from best-fit curve equations.

[2] = system: GBM8 (high-passage patient-derived GBM line); test: Drug screening of GBM8 tumor foci on OBSCs
Method: as §1, §2, §3, §4, §5

[3] = system: 7 cell lines (MB231Br, LN229, U373WT, U373KO, GBM8, MS21, PDIPG); test: Drug screening on OBSCs, summary over the panel of seven tumor lines; conditions: number of lines responding
Method: as §1, §2, §3, §4, §5

[4] = system: MB231Br (breast cancer metastasis to brain); test: Drug screening of MB231Br tumor foci on OBSCs
[5] = system: PDIPG (low-passage pediatric patient-derived line); test: Drug screening of PDIPG tumor foci on OBSCs
Method: as §1, §2, §3, §4, §5

[6] = system: LN229 (established GBM line); test: Drug screening of LN229 tumor foci on OBSCs
Method: as §1, §2, §3, §4, §5

[7] = system: MS21 (low-passage patient-derived GBM line); test: Drug screening of MS21 tumor foci on OBSCs
Method: as §1, §2, §3, §4, §5

[8] = system: U373WT (wild-type established GBM line); test: Drug screening of U373WT tumor foci on OBSCs
Method: as §1, §2, §3, §4, §5

[9] = area under the dose-response curve, trapezoidal rule
[10] = dose required to kill 10% of the tumor
[11] = dose required to kill 25% of the tumor
[12] = dose required to kill 75% of the tumor

Structure (SMILES): O=NN(CCCl)C(=O)NC1CCCCC1 [Lomustine]
- EC50 ([1]; Homo sapiens, U373 MG, dose required to kill 50% of the tumor): 607 µM
- EC90 ([1]; Homo sapiens, U373 MG, dose required to kill 90% of the tumor): 1830 µM
- IC50 ([1]; Homo sapiens, U373 MG, dosed day 1, survival via bioluminescence day 4, linear interpolation): 607 µM
- Killing at highest dose [1]: 9.70E-01 fraction of tumor population killed
- AUC [1, 9]: 8.35E+02
- EC10 [1, 10]: 83.3 µM
- EC25 [1, 11]: 208 µM
- EC75 [1, 12]: 1460 µM
- Slope ([1]; slope through the EC50): -5.60E-04
- Killing at highest dose ([2]; GBM8 on OBSCs): 1.00E+00 fraction of tumor population killed
- AUC ([2]; GBM8 on OBSCs, area under the dose-response curve, trapezoidal rule): 1.54E+01
- EC10 ([2]; GBM8 on OBSCs, dose required to kill 10% of the tumor): 0.685 µM
- EC25 ([2]; GBM8 on OBSCs, dose required to kill 25% of the tumor): 1.71 µM
- EC75 ([2]; GBM8 on OBSCs, dose required to kill 75% of the tumor): 5.45 µM
- Slope ([2]; GBM8 on OBSCs, slope through the EC50): -1.46E-01
- EC50 ([2]; Homo sapiens): 3.43 µM
- EC90 ([2]; Homo sapiens): 8.71 µM
- IC50 ([2]; Homo sapiens): 3.4 µM
- response / killing over the 7 cell lines [3]: robust response
- EC50 ([4]; Homo sapiens, MB231BR on OBSCs, dose required to kill 50% of the tumor): 1610 µM
- EC90 ([4]; Homo sapiens, MB231BR on OBSCs, dose required to kill 90% of the tumor): 1940 µM
- IC50 ([4]; Homo sapiens, MB231Br on OBSCs, dosed day 1, survival via bioluminescence day 4, linear interpolation): 1610 µM
- Killing at highest dose ([4]; MB231BR on OBSCs): 9.70E-01 fraction of tumor population killed
- AUC ([4]; MB231BR on OBSCs, area under the dose-response curve, trapezoidal rule): 1.96E+03
- EC10 ([4]; MB231BR on OBSCs, dose required to kill 10% of the tumor): 1280 µM
- EC25 ([4]; MB231BR on OBSCs, dose required to kill 25% of the tumor): 1400 µM
- EC75 ([4]; MB231BR on OBSCs, dose required to kill 75% of the tumor): 1820 µM
- Slope ([4]; MB231BR on OBSCs, slope through the EC50): -1.20E-03
- EC50 ([5]; Homo sapiens): 688 µM
- EC90 ([5]; Homo sapiens): 1880 µM
- IC50 ([5]; Homo sapiens): 688 µM
- Killing at highest dose ([5]; PDIPG on OBSCs): 9.30E-01 fraction of tumor population killed
- AUC ([5]; PDIPG on OBSCs, area under the dose-response curve, trapezoidal rule): 9.11E+02
- EC10 ([5]; PDIPG on OBSCs, dose required to kill 10% of the tumor): 354 µM
- EC25 ([5]; PDIPG on OBSCs, dose required to kill 25% of the tumor): 425 µM
- EC75 ([5]; PDIPG on OBSCs, dose required to kill 75% of the tumor): 1310 µM
- Slope ([5]; PDIPG on OBSCs, slope through the EC50): -4.80E-04
- Killing at highest dose [6]: 1.00E+00 fraction of tumor population killed
- EC50 ([6]; Homo sapiens, LN-229, dose required to kill 50% of the tumor): 960 µM
- EC90 ([6]; Homo sapiens, LN-229, dose required to kill 90% of the tumor): 1780 µM
- IC50 ([6]; Homo sapiens, LN-229, dosed day 1, survival via bioluminescence day 4, linear interpolation): 960 µM
- AUC [6, 9]: 9.70E+02
- EC10 [6, 10]: 417 µM
- EC25 [6, 11]: 758 µM
- EC75 [6, 12]: 1440 µM
- Slope ([6]; slope through the EC50): -1.24E-03
- EC50 ([7]; Homo sapiens): 1550 µM
- EC90 ([7]; Homo sapiens): 1990 µM
- IC50 ([7]; Homo sapiens): 1550 µM
- Killing at highest dose ([7]; MS21 on OBSCs): 9.10E-01 fraction of tumor population killed
- AUC ([7]; MS21 on OBSCs, area under the dose-response curve, trapezoidal rule): 1.61E+03
- EC10 ([7]; MS21 on OBSCs, dose required to kill 10% of the tumor): 1120 µM
- EC25 ([7]; MS21 on OBSCs, dose required to kill 25% of the tumor): 1280 µM
- EC75 ([7]; MS21 on OBSCs, dose required to kill 75% of the tumor): 1830 µM
- Slope ([7]; MS21 on OBSCs, slope through the EC50): -9.20E-04
- EC50 ([8]; Homo sapiens, U373 MG, U373 WT on OBSCs, dose required to kill 50% of the tumor): 665 µM
- EC90 ([8]; Homo sapiens, U373 MG, U373 WT on OBSCs, dose required to kill 90% of the tumor): 1960 µM
- IC50 ([8]; Homo sapiens, U373 MG, U373 WT on OBSCs, dosed day 1, survival via bioluminescence day 4, linear interpolation): 665 µM
- Killing at highest dose ([8]; U373 WT on OBSCs): 9.10E-01 fraction of tumor population killed
- AUC ([8]; U373 WT on OBSCs, area under the dose-response curve, trapezoidal rule): 8.89E+02
- EC10 ([8]; U373 WT on OBSCs, dose required to kill 10% of the tumor): 139 µM
- EC25 ([8]; U373 WT on OBSCs, dose required to kill 25% of the tumor): 554 µM
- EC75 ([8]; U373 WT on OBSCs, dose required to kill 75% of the tumor): 1380 µM
- Slope ([8]; U373 WT on OBSCs, slope through the EC50): -2.24E-03
- DSS (drug sensitivity score) ([8]; U373 WT, scale -100 to +100, tumor kill relative to OBSC toxicity): 64
